Laboratory results: BindingDB's records for PubMed 25825497 (Eli Lilly)

Key:
[1] = target: Serine/threonine-protein kinase PRP4 homolog (PRPF4B) (Homo sapiens) (UniProt Q13523); test: Inhibition of human PRP4 by discoverX kinome scan assay
[2] = target: Mitogen-activated protein kinase kinase kinase 12 (DLK/MAP3K12) (Homo sapiens) (UniProt Q12852); test: Inhibition of human DLK by discoverX kinome scan assay
[3] = target: Mitogen-activated protein kinase kinase kinase 7 (TAK1/MAP3K7) (Homo sapiens) (UniProt O43318); test: Inhibition of human TAK1 by discoverX kinome scan assay
Sequence of Mitogen-activated protein kinase kinase kinase 7 (TAK1/MAP3K7) (Homo sapiens) (O43318 whole entry, looked up): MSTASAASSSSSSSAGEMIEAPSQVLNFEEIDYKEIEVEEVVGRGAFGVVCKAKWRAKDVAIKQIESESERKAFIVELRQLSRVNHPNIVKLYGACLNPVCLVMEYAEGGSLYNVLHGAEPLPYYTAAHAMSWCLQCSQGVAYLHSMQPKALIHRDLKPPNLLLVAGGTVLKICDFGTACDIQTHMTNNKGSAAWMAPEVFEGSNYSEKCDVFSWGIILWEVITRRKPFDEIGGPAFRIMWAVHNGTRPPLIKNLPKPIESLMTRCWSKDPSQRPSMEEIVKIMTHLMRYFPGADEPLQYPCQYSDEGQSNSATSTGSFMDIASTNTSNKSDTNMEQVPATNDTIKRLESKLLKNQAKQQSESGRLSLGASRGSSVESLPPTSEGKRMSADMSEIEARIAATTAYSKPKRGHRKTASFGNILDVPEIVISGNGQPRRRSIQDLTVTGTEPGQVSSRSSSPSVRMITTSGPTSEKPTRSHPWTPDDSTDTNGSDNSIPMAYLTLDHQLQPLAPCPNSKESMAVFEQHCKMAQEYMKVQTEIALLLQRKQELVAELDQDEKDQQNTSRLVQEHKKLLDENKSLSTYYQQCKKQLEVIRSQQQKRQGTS

[4] = target: Serine/threonine-protein kinase OSR1 (OXSR1) (Homo sapiens) (UniProt O95747); test: Inhibition of human OSR1 by discoverX kinome scan assay
Sequence of Serine/threonine-protein kinase OSR1 (OXSR1) (Homo sapiens) (O95747 whole entry, looked up): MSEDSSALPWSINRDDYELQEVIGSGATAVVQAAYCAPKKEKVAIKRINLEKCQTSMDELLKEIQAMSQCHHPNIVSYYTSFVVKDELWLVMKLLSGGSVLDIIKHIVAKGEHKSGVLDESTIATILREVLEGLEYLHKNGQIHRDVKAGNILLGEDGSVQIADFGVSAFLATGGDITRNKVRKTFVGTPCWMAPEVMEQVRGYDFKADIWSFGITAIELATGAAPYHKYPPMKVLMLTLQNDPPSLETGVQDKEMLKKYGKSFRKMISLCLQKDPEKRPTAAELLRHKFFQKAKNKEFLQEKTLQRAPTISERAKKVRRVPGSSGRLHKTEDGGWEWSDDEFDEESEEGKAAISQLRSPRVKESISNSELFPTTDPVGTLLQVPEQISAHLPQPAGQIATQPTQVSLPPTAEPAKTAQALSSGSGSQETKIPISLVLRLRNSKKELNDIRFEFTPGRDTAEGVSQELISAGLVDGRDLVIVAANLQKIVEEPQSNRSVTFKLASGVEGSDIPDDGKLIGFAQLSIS

Sequence of Serine/threonine-protein kinase PRP4 homolog (PRPF4B) (Homo sapiens) (Q13523 whole entry, looked up): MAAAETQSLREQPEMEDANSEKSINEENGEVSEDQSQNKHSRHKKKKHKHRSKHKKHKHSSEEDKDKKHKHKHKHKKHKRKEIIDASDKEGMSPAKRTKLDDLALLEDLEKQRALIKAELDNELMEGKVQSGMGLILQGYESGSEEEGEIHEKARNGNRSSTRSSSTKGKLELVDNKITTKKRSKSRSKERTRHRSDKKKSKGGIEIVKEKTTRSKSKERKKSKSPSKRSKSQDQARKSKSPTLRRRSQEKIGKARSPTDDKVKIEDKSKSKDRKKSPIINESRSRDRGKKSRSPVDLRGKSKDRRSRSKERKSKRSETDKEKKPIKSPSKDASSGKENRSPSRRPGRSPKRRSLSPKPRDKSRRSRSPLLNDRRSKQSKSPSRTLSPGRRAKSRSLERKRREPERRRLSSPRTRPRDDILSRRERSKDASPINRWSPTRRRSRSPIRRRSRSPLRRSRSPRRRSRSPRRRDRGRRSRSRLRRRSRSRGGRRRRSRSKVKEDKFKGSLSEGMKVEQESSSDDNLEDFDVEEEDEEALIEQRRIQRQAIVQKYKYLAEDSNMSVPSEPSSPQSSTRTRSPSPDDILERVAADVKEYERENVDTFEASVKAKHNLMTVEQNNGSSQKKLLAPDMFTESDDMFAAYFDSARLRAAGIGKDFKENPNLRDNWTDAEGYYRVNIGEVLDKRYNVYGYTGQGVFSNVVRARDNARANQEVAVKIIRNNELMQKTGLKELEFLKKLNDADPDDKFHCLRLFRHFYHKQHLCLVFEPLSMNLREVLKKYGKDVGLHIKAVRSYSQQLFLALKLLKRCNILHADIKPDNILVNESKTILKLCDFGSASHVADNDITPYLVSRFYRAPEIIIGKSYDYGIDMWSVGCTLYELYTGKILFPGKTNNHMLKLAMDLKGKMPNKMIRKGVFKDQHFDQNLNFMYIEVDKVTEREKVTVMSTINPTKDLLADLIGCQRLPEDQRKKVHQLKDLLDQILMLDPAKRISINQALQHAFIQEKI
Sequence of Mitogen-activated protein kinase kinase kinase 12 (DLK/MAP3K12) (Homo sapiens) (Q12852 whole entry, looked up): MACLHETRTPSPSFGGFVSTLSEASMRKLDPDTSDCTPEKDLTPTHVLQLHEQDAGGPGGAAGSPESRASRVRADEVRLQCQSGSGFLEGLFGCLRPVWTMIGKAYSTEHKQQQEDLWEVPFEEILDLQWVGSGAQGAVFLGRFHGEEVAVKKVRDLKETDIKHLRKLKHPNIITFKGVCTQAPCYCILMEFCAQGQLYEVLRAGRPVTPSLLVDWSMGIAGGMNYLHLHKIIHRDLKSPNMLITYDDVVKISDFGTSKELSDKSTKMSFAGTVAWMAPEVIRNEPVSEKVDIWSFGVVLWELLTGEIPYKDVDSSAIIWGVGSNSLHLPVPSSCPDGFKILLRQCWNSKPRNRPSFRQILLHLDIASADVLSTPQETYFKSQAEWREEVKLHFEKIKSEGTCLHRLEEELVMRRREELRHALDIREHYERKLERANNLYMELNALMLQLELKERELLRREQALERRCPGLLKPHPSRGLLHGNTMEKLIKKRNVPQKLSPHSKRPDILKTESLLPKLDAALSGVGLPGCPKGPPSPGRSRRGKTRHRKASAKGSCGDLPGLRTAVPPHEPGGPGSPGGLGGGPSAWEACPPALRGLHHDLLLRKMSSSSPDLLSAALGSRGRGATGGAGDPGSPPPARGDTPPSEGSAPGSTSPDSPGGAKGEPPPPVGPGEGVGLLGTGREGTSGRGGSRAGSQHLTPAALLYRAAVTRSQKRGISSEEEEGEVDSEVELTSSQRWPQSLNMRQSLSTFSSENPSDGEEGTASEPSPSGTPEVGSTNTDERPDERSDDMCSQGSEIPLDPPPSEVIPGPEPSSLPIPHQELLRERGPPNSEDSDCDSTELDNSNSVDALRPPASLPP

- IC50 [1]: > 20 µM
- IC50 [2]: > 20 µM
- IC50 [3]: > 20 µM
- IC50 [4]: > 20 µM
Structure (SMILES): Cc1cn(CCN2CCN(c3ccccc3-c3cc(C#N)cc(C(=O)NCCCN4CCCC4)c3)CC2)c2ccccc12
